Data on one compound can be found in patent publication CN109762015A, “一种阿维菌素B2a磷酸化修饰物及其制备方法和应用” (HEBEI MEIHE PHARMACEUTICAL Co Ltd, priority 2019, dated 2019).

One data set deals with plants (植株). Conditions: background statement; cited from earlier work.
The subject of data set [1] is root-knot nematode of watermelon (西瓜根结线虫). Nature of the data set: Field trial: control of watermelon root-knot nematode (Example 7). In kind it is in vivo. As to conditions: 0.25 g/plant, hole application at transplanting; assessed 2 d before harvest, five-point sampling, 10 plants per field.
Data set [2] relates to other diseases and pests and non-target organisms (其他病虫害及非靶标生物). Nature of the data set: Safety evaluation: effect on other diseases/pests and non-target organisms (Example 7). In kind it is in vivo. Conditions: 0.25 g/plant, hole application at transplanting.
A further data set concerns watermelon (西瓜). Nature of the data set: Watermelon yield after treatment (Example 8). In kind it is in vivo. Conditions: 0.25 g/plant at transplanting.

Regarding `CC[C@H](C)[C@H]1O[C@@]2(C[C@@H]3C[C@@H](C/C=C(\C)[C@@H](O[C@H]4C[C@H](OC)[C@@H](O[C@H]5C[C@H](OC)[C@@H](O)[C@H](C)O5)[C@H](C)O4)[C@@H](C)/C=C/C=C4\CO[C@@H]5[C@H](O)C(C)=C[C@@H](C(=O)O3)[C@]45O)O2)C[C@H](O)[C@@H]1C` [阿维菌素B2a], in the data set with plants (植株), the “phytotoxicity in individual plants” value was “会使个别植株出现黄化、烧根等现象”. The compound further showed a control effect in data set [1] of 83.32%. The “effect on other diseases/pests and non-target organisms” value in data set [2] is given as “无不良影响”. In the data set on watermelon (西瓜) (3 watermelons per field, blank field 5.98), the single fruit weight was 7.01 kg. For the same compound, the converted yield with watermelon (西瓜) (converted from weighing 3 watermelons per field, blank field 38967.4) is recorded as 47784.9 kg·hm-2. The “growth rate relative to blank field (yield increase)” value with watermelon (西瓜) (versus blank field) was 22.62%.
